Non-standard residues stand in square brackets, D forms with d. Residues, ends and D or L forms follow the SMILES beside them. *: point of attachment. Shikimoyl = O=C(C1=C[C@@H](O)[C@@H](O)[C@H](O)C1)*; dPhe(4-Cl) = N[C@H](Cc1ccc(Cl)cc1)C(=O)O; d2Nal = N[C@H](Cc1ccc2ccccc2c1)C(=O)O; Acetyl(3-pyridyl) = O=C(Cc1cccnc1)*; NMeY = CN[C@@H](Cc1ccc(O)cc1)C(=O)O; dCit = NC(=O)NCCC[C@@H](N)C(=O)O; hArg = N=C(N)NCCCC[C@H](N)C(=O)O; d3Pal = N[C@H](Cc1cccnc1)C(=O)O; Isonicotinoyl = O=C(c1ccncc1)*; Nicotinoyl = O=C(c1cccnc1)*; Picolinoyl = O=C(c1ccccn1)*; 2Furoyl = O=C(c1ccco1)*
Target: T1, LHRH (Rattus norvegicus, UniProt P30969)
T1 construct: endogenous in cells; host or cells: rat pituitary cells (own knowledge of the cited Haviv 1989 method)
T1 sequence (P30969 1-327): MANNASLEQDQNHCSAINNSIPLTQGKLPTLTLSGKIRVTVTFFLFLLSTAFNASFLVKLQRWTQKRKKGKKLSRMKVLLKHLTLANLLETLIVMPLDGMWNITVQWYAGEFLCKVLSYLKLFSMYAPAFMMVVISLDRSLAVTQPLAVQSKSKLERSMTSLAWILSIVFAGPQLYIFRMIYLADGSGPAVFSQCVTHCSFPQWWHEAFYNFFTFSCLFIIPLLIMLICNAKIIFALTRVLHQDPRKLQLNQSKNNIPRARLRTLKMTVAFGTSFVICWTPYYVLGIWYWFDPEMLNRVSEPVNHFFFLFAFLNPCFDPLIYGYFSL
Experiment: in vitro test for LHRH antagonist potency (pA2)
Type: cell-based
Conditions: negative logarithm of the antagonist concentration required to shift the response curve produced by the agonist leuprolide to two-fold higher concentration
How it was run: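 Rat LHRH receptor in vitro functional test; pA2 = negative log of the antagonist concentration shifting the leuprolide agonist response curve to two-fold higher concentration.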

Row | Compound | Kb [nM]
1 | CC(C)C[C@H](NC(=O)[C@@H](CCCNC(N)=O)NC(=O)[C@H](Cc1ccc(O)cc1)N(C)C(=O)[C@H](CO)NC(=O)[C@@H](Cc1cccnc1)NC(=O)[C@@H](Cc1ccc(Cl)cc1)NC(=O)[C@@H](Cc1ccc2ccccc2c1)NC(=O)c1ccco1)C(=O)N[C@@H](CCCNC(=N)N)C(=O)N1CCC[C@H]1C(=O)N[C@H](C)C(N)=O [Example 78d, N-2-Furoyl-D2Nal-D4ClPhe-D3Pal-Ser-NMeTyr-DCit-Leu-Arg-Pro-DAlaNH2] (2Furoyl-[d2Nal][dPhe(4-Cl)][d3Pal]S[NMeY][dCit]LRP[dA]-NH2) | 0.00794
2 | CC(C)C[C@H](NC(=O)[C@@H](CCCNC(N)=O)NC(=O)[C@H](Cc1ccc(O)cc1)N(C)C(=O)[C@H](CO)NC(=O)[C@@H](Cc1cccnc1)NC(=O)[C@@H](Cc1ccc(Cl)cc1)NC(=O)[C@@H](Cc1ccc2ccccc2c1)NC(=O)c1ccncc1)C(=O)N[C@@H](CCCNC(=N)N)C(=O)N1CCC[C@H]1C(=O)N[C@H](C)C(N)=O [Example 78e, N-Isonicotinyl-D2Nal-D4ClPhe-D3Pal-Ser-NMeTyr-DCit-Leu-Arg-Pro-DAlaNH2] (Isonicotinoyl-[d2Nal][dPhe(4-Cl)][d3Pal]S[NMeY][dCit]LRP[dA]-NH2) | 0.0162
3 | CC(C)C[C@H](NC(=O)[C@@H](CCCNC(N)=O)NC(=O)[C@H](Cc1ccc(O)cc1)N(C)C(=O)[C@H](CO)NC(=O)[C@@H](Cc1cccnc1)NC(=O)[C@@H](Cc1ccc(Cl)cc1)NC(=O)[C@@H](Cc1ccc2ccccc2c1)NC(=O)c1ccccn1)C(=O)N[C@@H](CCCNC(=N)N)C(=O)N1CCC[C@H]1C(=O)N[C@H](C)C(N)=O [Example 78f, N-Picolinoyl-D2Nal-D4ClPhe-D3Pal-Ser-NMeTyr-DCit-Leu-Arg-Pro-DAlaNH2] (Picolinoyl-[d2Nal][dPhe(4-Cl)][d3Pal]S[NMeY][dCit]LRP[dA]-NH2) | 0.0316
4 | CC(C)C[C@H](NC(=O)[C@@H](CCCNC(N)=O)NC(=O)[C@H](Cc1ccc(O)cc1)N(C)C(=O)[C@H](CO)NC(=O)[C@@H](Cc1cccnc1)NC(=O)[C@@H](Cc1ccc(Cl)cc1)NC(=O)[C@@H](Cc1ccc2ccccc2c1)NC(=O)c1cccnc1)C(=O)N[C@@H](CCCNC(=N)N)C(=O)N1CCC[C@H]1C(=O)N[C@H](C)C(N)=O [Example 78g, N-Nicotinyl-D2Nal-D4ClPhe-D3Pal-Ser-NMeTyr-DCit-Leu-Arg-Pro-DAlaNH2] (Nicotinoyl-[d2Nal][dPhe(4-Cl)][d3Pal]S[NMeY][dCit]LRP[dA]-NH2) | 0.00708
5 | CC(C)C[C@H](NC(=O)[C@@H](CCCNC(N)=O)NC(=O)[C@H](Cc1ccc(O)cc1)N(C)C(=O)[C@H](CO)NC(=O)[C@@H](Cc1cccnc1)NC(=O)[C@@H](Cc1ccc(Cl)cc1)NC(=O)[C@@H](Cc1ccc2ccccc2c1)NC(=O)Cc1cccnc1)C(=O)N[C@@H](CCCNC(=N)N)C(=O)N1CCC[C@H]1C(=O)N[C@H](C)C(N)=O [Example 78h, N-(3-Pyridylacetyl)-D2Nal-D4ClPhe-D3Pal-Ser-NMeTyr-DCit-Leu-Arg-Pro-DAlaNH2] ({Acetyl(3-pyridyl)}-[d2Nal][dPhe(4-Cl)][d3Pal]S[NMeY][dCit]LRP[dA]-NH2) | 0.0316
6 | CC(C)C[C@H](NC(=O)[C@@H](CCCCNC(=O)C1=C[C@@H](O)[C@@H](O)[C@H](O)C1)NC(=O)[C@H](Cc1ccc(O)cc1)N(C)C(=O)[C@H](CO)NC(=O)[C@@H](Cc1cccnc1)NC(=O)[C@@H](Cc1ccc(Cl)cc1)NC(=O)[C@@H](Cc1ccc2ccccc2c1)NC(=O)C1=C[C@@H](O)[C@@H](O)[C@H](O)C1)C(=O)N[C@@H](CCCCNC(=N)N)C(=O)N1CCC[C@H]1C(=O)N[C@H](C)C(N)=O [Example 79, N-Shikimyl-D2Nal-D4ClPhe-D3Pal-Ser-NMeTyr-DLys(Shik)-Leu-Harg-Pro-DAlaNH2] (Shikimoyl-[d2Nal][dPhe(4-Cl)][d3Pal]S[NMeY][dK](Shikimoyl)L[hArg]P[dA]-NH2) | 0.0195

Source: US5502035A, “N-terminus modified analogs of LHRH” (Tap Holdings Inc., priority 1994, dated 1996)
